System: Jurkat T cells
Experiment: mRNA sequencing of activated Jurkat T cells
Format: cell-based, human
Conditions: P + I

C=CC[C@@H]1/C=C(\C)C[C@H](C)C[C@H](OC)[C@H]2O[C@@](O)(C(=O)C(=O)N3CCCC[C@H]3C(=O)O[C@H](/C(C)=C/[C@@H]3CC[C@@H](O)[C@H](OC)C3)[C@H](C)[C@@H](O)CC1=O)[C@H](C)C[C@@H]2OC [FK506, Tacrolimus, reference compound]
MSMO1 FPKM (Jurkat T cells): 59.655 FPKM | MT2A FPKM (Jurkat T cells): 369.658 FPKM | MXD3 FPKM (Jurkat T cells): 17.861 FPKM | MYB FPKM (Jurkat T cells): 58.524 FPKM | MZB1 FPKM (Jurkat T cells): 22.015 FPKM | N4BP3 FPKM (Jurkat T cells): 1.739 FPKM | NAA16 FPKM (Jurkat T cells): 3.527 FPKM | NCKAP1 FPKM (Jurkat T cells): 8.582 FPKM | NCOA3 FPKM (Jurkat T cells): 9.949 FPKM | NDRG1 FPKM (Jurkat T cells): 126.361 FPKM | NDRG2 FPKM (Jurkat T cells): 2.881 FPKM | NEDD9 FPKM (Jurkat T cells): 3.748 FPKM | NFATC1 FPKM (Jurkat T cells): 3.793 FPKM | NFKB1 FPKM (Jurkat T cells): 34.242 FPKM | NFKB2 FPKM (Jurkat T cells): 49.22 FPKM | NLRC3 FPKM (Jurkat T cells): 7.789 FPKM | NME4 FPKM (Jurkat T cells): 16.395 FPKM | NOTCH2 FPKM (Jurkat T cells): 10.308 FPKM | NOTCH3 FPKM (Jurkat T cells): 0.902 FPKM | NPDC1 FPKM (Jurkat T cells): 4.328 FPKM | NR4A3 FPKM (Jurkat T cells): 1.927 FPKM | NREP FPKM (Jurkat T cells): 9.925 FPKM | NRP1 FPKM (Jurkat T cells): 14.572 FPKM | NSG1 FPKM (Jurkat T cells): 4.302 FPKM | NSMF FPKM (Jurkat T cells): 3.164 FPKM | NT5E FPKM (Jurkat T cells): 8.91 FPKM | NTRK1 FPKM (Jurkat T cells): 0.836 FPKM | ODC1 FPKM (Jurkat T cells): 245.466 FPKM | OPTN FPKM (Jurkat T cells): 12.958 FPKM | OSBPL5 FPKM (Jurkat T cells): 3.354 FPKM | PAM FPKM (Jurkat T cells): 1.483 FPKM | PCNA-AS1 FPKM (Jurkat T cells): 70.937 FPKM | PDCD1 FPKM (Jurkat T cells): 1.377 FPKM | PDGFA FPKM (Jurkat T cells): 3.25 FPKM | PDGFC FPKM (Jurkat T cells): 2.292 FPKM | PDIA6 FPKM (Jurkat T cells): 123.669 FPKM | PDLIM1 FPKM (Jurkat T cells): 6.874 FPKM | PELI2 FPKM (Jurkat T cells): 11.262 FPKM | PEX5L FPKM (Jurkat T cells): 1.428 FPKM | PHACTR2 FPKM (Jurkat T cells): 2.927 FPKM | PHLDB2 FPKM (Jurkat T cells): 3.898 FPKM | PI16 FPKM (Jurkat T cells): 17.07 FPKM | PKIG FPKM (Jurkat T cells): 12.411 FPKM | PKM FPKM (Jurkat T cells): 1736.037 FPKM | PLAC8 FPKM (Jurkat T cells): 3.158 FPKM | PLEC FPKM (Jurkat T cells): 21.747 FPKM | PLS3 FPKM (Jurkat T cells): 0.052 FPKM | POTEE FPKM (Jurkat T cells): 1.42 FPKM | POU2AF1 FPKM (Jurkat T cells): 2.274 FPKM | POU2F2 FPKM (Jurkat T cells): 3.317 FPKM | PPIF FPKM (Jurkat T cells): 50.291 FPKM | PPP1R15A FPKM (Jurkat T cells): 77.478 FPKM | PPP1R16B FPKM (Jurkat T cells): 29.659 FPKM | PRDM8 FPKM (Jurkat T cells): 39.913 FPKM | PRNP FPKM (Jurkat T cells): 39.685 FPKM | PSMB10 FPKM (Jurkat T cells): 104.49 FPKM | PTPN6 FPKM (Jurkat T cells): 20.906 FPKM | PTPN7 FPKM (Jurkat T cells): 93.59 FPKM | PXYLP1 FPKM (Jurkat T cells): 5.01 FPKM | QPRT FPKM (Jurkat T cells): 13.402 FPKM | RAB37 FPKM (Jurkat T cells): 2.455 FPKM | RASGRP1 FPKM (Jurkat T cells): 4.464 FPKM | RASGRP2 FPKM (Jurkat T cells): 3.002 FPKM | RB1 FPKM (Jurkat T cells): 62.321 FPKM | RCBTB2 FPKM (Jurkat T cells): 13.008 FPKM | RCOR2 FPKM (Jurkat T cells): 1.361 FPKM | RGS2 FPKM (Jurkat T cells): 3.365 FPKM | RHOU FPKM (Jurkat T cells): 1.51 FPKM | RNF19A FPKM (Jurkat T cells): 12.334 FPKM | RNF212 FPKM (Jurkat T cells): 1.059 FPKM | RORA FPKM (Jurkat T cells): 2.502 FPKM | RRAS2 FPKM (Jurkat T cells): 18.257 FPKM | RTN4R FPKM (Jurkat T cells): 2.449 FPKM | RUNX1 FPKM (Jurkat T cells): 37.963 FPKM | RUNX3 FPKM (Jurkat T cells): 23.624 FPKM | SASH3 FPKM (Jurkat T cells): 59.349 FPKM | SBK1 FPKM (Jurkat T cells): 9.239 FPKM | SCG2 FPKM (Jurkat T cells): 159.394 FPKM | SCHIP1 FPKM (Jurkat T cells): 1.535 FPKM | SEPT3 FPKM (Jurkat T cells): 1.089 FPKM | SEPT6 FPKM (Jurkat T cells): 55.091 FPKM | SEPT9 FPKM (Jurkat T cells): 55.265 FPKM | SERINC5 FPKM (Jurkat T cells): 3.184 FPKM | SERPINB8 FPKM (Jurkat T cells): 23.788 FPKM | SERPINE2 FPKM (Jurkat T cells): 3.936 FPKM | SERTAD1 FPKM (Jurkat T cells): 16.162 FPKM | SGK1 FPKM (Jurkat T cells): 76.683 FPKM | SH2D1A FPKM (Jurkat T cells): 23.649 FPKM | SH2D2A FPKM (Jurkat T cells): 20.658 FPKM | SH3TC1 FPKM (Jurkat T cells): 1.562 FPKM | SIVA1 FPKM (Jurkat T cells): 50.269 FPKM | SLAMF1 FPKM (Jurkat T cells): 0.217 FPKM | SLAMF7 FPKM (Jurkat T cells): 3.121 FPKM | SLAMF8 FPKM (Jurkat T cells): 5.282 FPKM | SLC22A1 FPKM (Jurkat T cells): 7.005 FPKM | SLC27A2 FPKM (Jurkat T cells): 41.996 FPKM | SLC29A4 FPKM (Jurkat T cells): 1.68 FPKM | SLC35E4 FPKM (Jurkat T cells): 0.952 FPKM | SLC35G2 FPKM (Jurkat T cells): 10.118 FPKM | SMAD1 FPKM (Jurkat T cells): 4.873 FPKM | SMOX FPKM (Jurkat T cells): 14.9 FPKM | SMPD1 FPKM (Jurkat T cells): 20.599 FPKM | SORBS1 FPKM (Jurkat T cells): 0.4 FPKM | SOX4 FPKM (Jurkat T cells): 76.17 FPKM | SPINT1 FPKM (Jurkat T cells): 1.948 FPKM | SPRY1 FPKM (Jurkat T cells): 4.074 FPKM | SPRY4 FPKM (Jurkat T cells): 9.613 FPKM | SPSB1 FPKM (Jurkat T cells): 10.137 FPKM | SPTBN2 FPKM (Jurkat T cells): 2.135 FPKM | SRGN FPKM (Jurkat T cells): 10.812 FPKM | SSBP2 FPKM (Jurkat T cells): 7.127 FPKM | ST3GAL6 FPKM (Jurkat T cells): 4.018 FPKM | STAT2 FPKM (Jurkat T cells): 37.805 FPKM | STAT3 FPKM (Jurkat T cells): 83.385 FPKM | STAU2 FPKM (Jurkat T cells): 7.124 FPKM | STMN3 FPKM (Jurkat T cells): 10.423 FPKM | STX1A FPKM (Jurkat T cells): 16.1 FPKM | SYK FPKM (Jurkat T cells): 7.044 FPKM | TAGAP FPKM (Jurkat T cells): 4.352 FPKM | TAL1 FPKM (Jurkat T cells): 22.337 FPKM | TAP2 FPKM (Jurkat T cells): 5.187 FPKM | TAPBPL FPKM (Jurkat T cells): 19.59 FPKM | TBC1D4 FPKM (Jurkat T cells): 12.549 FPKM | TBC1D5 FPKM (Jurkat T cells): 4.088 FPKM | TBKBP1 FPKM (Jurkat T cells): 16.894 FPKM | TCF3 FPKM (Jurkat T cells): 39.165 FPKM | TCF7 FPKM (Jurkat T cells): 13.065 FPKM | TCF12 FPKM (Jurkat T cells): 34.798 FPKM | TDRD9 FPKM (Jurkat T cells): 1.245 FPKM | TGFBR2 FPKM (Jurkat T cells): 36.615 FPKM | THEM6 FPKM (Jurkat T cells): 3.232 FPKM | THEMIS FPKM (Jurkat T cells): 33.406 FPKM | TIAF1 FPKM (Jurkat T cells): 12.479 FPKM | TIAM1 FPKM (Jurkat T cells): 8.466 FPKM | TIAM2 FPKM (Jurkat T cells): 0.27 FPKM | TLE1 FPKM (Jurkat T cells): 1.864 FPKM | TMCC3 FPKM (Jurkat T cells): 4.527 FPKM | TNFAIP3 FPKM (Jurkat T cells): 25.168 FPKM | TNFRSF10B FPKM (Jurkat T cells): 25.474 FPKM | TNFSF10 FPKM (Jurkat T cells): 24.883 FPKM | TNFSF14 FPKM (Jurkat T cells): 1.023 FPKM | TPM4 FPKM (Jurkat T cells): 202.311 FPKM | TPST2 FPKM (Jurkat T cells): 21.077 FPKM | TRAF3IP3 FPKM (Jurkat T cells): 15.012 FPKM | TRIB1 FPKM (Jurkat T cells): 5.422 FPKM | TRIM21 FPKM (Jurkat T cells): 45.856 FPKM | TTLL1 FPKM (Jurkat T cells): 3.69 FPKM | UBE2L6 FPKM (Jurkat T cells): 164.565 FPKM | UHRF1 FPKM (Jurkat T cells): 8.288 FPKM | VAMP1 FPKM (Jurkat T cells): 14.793 FPKM | VAT1 FPKM (Jurkat T cells): 44.696 FPKM | VAV1 FPKM (Jurkat T cells): 30.218 FPKM | WARS FPKM (Jurkat T cells): 105.541 FPKM | WDR76 FPKM (Jurkat T cells): 8.368 FPKM | XCL1 FPKM (Jurkat T cells): 0 FPKM | XCL2 FPKM (Jurkat T cells): 0 FPKM | XIRP1 FPKM (Jurkat T cells): 6.348 FPKM | XRCC6BP1 FPKM (Jurkat T cells): 9.744 FPKM | YPEL1 FPKM (Jurkat T cells): 5.628 FPKM | ZFP36L1 FPKM (Jurkat T cells): 153.648 FPKM | ZFP36L2 FPKM (Jurkat T cells): 13.343 FPKM | ZNF280D FPKM (Jurkat T cells): 2.345 FPKM | ZNF367 FPKM (Jurkat T cells): 2.354 FPKM | ZNF480 FPKM (Jurkat T cells): 7.174 FPKM | ZNF521 FPKM (Jurkat T cells): 2.011 FPKM | ZNF652 FPKM (Jurkat T cells): 2.631 FPKM | ZNF704 FPKM (Jurkat T cells): 0.014 FPKM | ZNF827 FPKM (Jurkat T cells): 1.521 FPKM | ZNFX1 FPKM (Jurkat T cells): 16.708 FPKM | ZP4 FPKM (Jurkat T cells): 0.462 FPKM | ZYX FPKM (Jurkat T cells): 127.794 FPKM | ADORA2A FPKM: 0.998 FPKM | AGK FPKM: 14.029 FPKM | ARHGEF3 FPKM: 8.637 FPKM | ASAP1 FPKM: 7.765 FPKM | ATG14 FPKM: 7.863 FPKM | ATP6V1B2 FPKM: 50.672 FPKM | BCL2L1 FPKM: 39.402 FPKM | C3 FPKM: 0.489 FPKM | C10orf54 FPKM: 0.382 FPKM | CABP1 FPKM: 1.201 FPKM | CCDC64 FPKM: 10.044 FPKM | CCL1 FPKM: 0 FPKM | CCL3 FPKM: 0 FPKM | CCL3L1 FPKM: 0 FPKM | CCL3L3 FPKM: 0 FPKM | CCL4 FPKM: 0 FPKM | CCL4L1 FPKM: 0.087 FPKM | CCL4L2 FPKM: 0.087 FPKM | CCL20 FPKM: 0 FPKM | CCND2 FPKM: 0.558 FPKM | CD27-AS1 FPKM: 5.11 FPKM | CD27 FPKM: 3.098 FPKM | CD55 FPKM: 6.015 FPKM | CD70 FPKM: 3.005 FPKM | CD97 FPKM: 19.394 FPKM | CD200 FPKM: 0 FPKM | COL27A1 FPKM: 4.463 FPKM | CREB5 FPKM: 0.577 FPKM

Reference: patent US20240376163A1, “PEPTIDE FOR INHIBITING CALCINEURIN AND USE THEREOF” (Seoul National University R&DB Foundation, priority 2023, published 2024)
